From patent US10336760B2, “Inhibitors of cyclin-dependent kinase 7 (CDK7)” (SYROS PHARMACEUTICALS, INC., priority 2014, dated 2019)
Where two headings read alike, the source gives them in different places.

Key:
A673 cells = experiment: Inhibition of A673 cell proliferation (CyQUANT); format: cell-based; conditions: Homo sapiens, read-out: A673 IC50
Description: Representative compounds of the invention were tested at different concentrations (from 4 μM to 126.4 pM; 0.5 log serial dilutions) for their ability to inhibit the proliferation of A673 cells. Known CDK inhibitors flavopiridol and triptolide were used as positive controls. Cells were grown in Dulbecco's Modified Eagle's Medium, +10% FBS+1 mM Sodium Pyruvate. The cells were cultured at 37° C. in a humidified chamber in the presence of 5% CO2. Proliferation assays were conducted over a 72 hour time period. CyQUANT® (Life Technologies, Chicago, Ill. USA) was used to assess the anti-proliferative effects of the compounds following manufacturer's directions and utilizing the reagents supplied with the CyQUANT® kit.

CDK7 = biological target: T1, CDK7 (Homo sapiens, UniProt P50613); experiment: CDK7 kinase activity, Adapta kinase assay (Life Technologies); format: biochemical; conditions: read-out: CDK7 Inhibition (IC50); note: concentrations from 10 µM down to 0.514 nM
T1 construct: purchased Life Technologies (Grand Island, N.Y.), Adapta kinase assay service
Description: Compounds of the invention were assayed for CDK7 activity at Life Technologies (Grand Island, N.Y.) using their commercially available Adapta® kinase assay services. […] Details of this assay, including substrates used, are available on the Life Technologies web site (http://www.lifetechnologies.com/us/en/home/life-science/drug-discovery/target-and-lead-identification-and-validation/kinasebiology/kinase-activity-assays.html).

[1] = A673 cells, 72 hour proliferation, CyQUANT, 4 μM to 126.4 pM, 0.5 log serial dilutions

T1 sequence (P50613 whole entry): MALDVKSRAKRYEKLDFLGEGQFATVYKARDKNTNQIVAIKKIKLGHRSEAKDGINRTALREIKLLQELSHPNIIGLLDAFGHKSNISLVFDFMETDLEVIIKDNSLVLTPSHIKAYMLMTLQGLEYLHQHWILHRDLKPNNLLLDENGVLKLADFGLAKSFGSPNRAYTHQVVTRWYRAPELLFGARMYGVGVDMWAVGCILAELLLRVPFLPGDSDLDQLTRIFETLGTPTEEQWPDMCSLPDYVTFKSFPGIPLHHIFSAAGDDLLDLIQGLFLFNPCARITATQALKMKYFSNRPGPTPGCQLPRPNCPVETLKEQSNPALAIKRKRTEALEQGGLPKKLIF
T1 sequence (P51946 whole entry partner): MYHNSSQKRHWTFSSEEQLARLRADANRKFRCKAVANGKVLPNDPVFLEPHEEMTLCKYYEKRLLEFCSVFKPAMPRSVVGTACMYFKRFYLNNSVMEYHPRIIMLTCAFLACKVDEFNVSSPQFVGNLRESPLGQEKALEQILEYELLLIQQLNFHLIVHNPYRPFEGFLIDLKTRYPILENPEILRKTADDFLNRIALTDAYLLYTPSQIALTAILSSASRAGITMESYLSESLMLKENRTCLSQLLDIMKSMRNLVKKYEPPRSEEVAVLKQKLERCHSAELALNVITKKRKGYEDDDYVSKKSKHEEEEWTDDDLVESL
T1 sequence (P51948 whole entry partner): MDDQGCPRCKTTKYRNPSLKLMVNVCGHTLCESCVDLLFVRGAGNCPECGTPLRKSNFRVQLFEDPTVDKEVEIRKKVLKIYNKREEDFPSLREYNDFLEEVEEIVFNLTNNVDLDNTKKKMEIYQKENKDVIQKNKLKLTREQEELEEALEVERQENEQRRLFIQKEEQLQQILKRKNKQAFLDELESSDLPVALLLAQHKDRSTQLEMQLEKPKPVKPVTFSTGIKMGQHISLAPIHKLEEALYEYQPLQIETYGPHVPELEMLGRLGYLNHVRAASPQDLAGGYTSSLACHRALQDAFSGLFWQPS

Row | SMILES | IC50 (A673 cells; [1]) [nM] | IC50 (CDK7) [nM] | IC50 (A673 cells; A673, 72 h) [nM]
1 | C=CC(=O)N1CCC(C(=O)N2CCC(C(=O)Nc3ncc(SCc4ncc(C(C)(C)C)o4)s3)CC2)CC1 [Compound 123, 1-(1-Acryloylpiperidine-4-carbonyl)-N-(5-(((5-(tert-butyl)oxazol-2-yl)methyl)thio)thiazol-2-yl)piperidine-4-carboxamide] | < 500 |  | 
2 | CN(C)C/C=C/C(=O)Nc1cccc(CN2CCC(C(=O)Nc3ncc(SCc4ncc(C(C)(C)C)o4)s3)CC2)c1 [Compound 127, (E)-N-(5-(((5-(tert-butyl)oxazol-2-yl)methyl)thio)thiazol-2-yl)-1-(3-(4-(dimethylamino)but-2-enamido)benzyl)piperidine-4-carboxamide] | < 500 | 100 to 1000 | 
3 | C=CC(=O)N1CCC(CN2CCC(C(=O)Nc3ncc(SCc4ncc(C(C)(C)C)o4)s3)CC2)CC1 [Compound 120, 1-((1-Acryloylpiperidin-4-yl)methyl)-N-(5-(((5-(tert-butyl)oxazol-2-yl)methyl)thio)thiazol-2-yl)piperidine-4-carboxamide] |  | > 1000 | < 500
4 | C=CC(=O)Nc1cccc(CN2CCC(C(=O)Nc3ncc(SCc4ncc(C(C)(C)C)o4)s3)CC2)c1 [Compound 118, 1-(3-Acrylamidobenzyl)-N-(5-(((5-(tert-butyl)oxazol-2-yl)methyl)thio)thiazol-2-yl)piperidine-4-carboxamide] |  | 100 to 1000 | < 500
5 | C=CC(=O)Nc1cccc(C(=O)N2CCC(C(=O)Nc3ncc(SCc4ncc(C(C)(C)C)o4)s3)CC2)c1 [Compound 117, 1-(3-Acrylamidobenzoyl)-N-(5-(((5-(tert-butyl)oxazol-2-yl)methyl)thio)thiazol-2-yl)piperidine-4-carboxamide] | < 500 |  | 
6 | C=CC(=O)Nc1ccc(CN2CCC(C(=O)Nc3ncc(SCc4ncc(C(C)(C)C)o4)s3)CC2)cc1 [Compound 119, 1-(4-Acrylamidobenzyl)-N-(5-(((5-(tert-butyl)oxazol-2-yl)methyl)thio)thiazol-2-yl)piperidine-4-carboxamide] |  | 100 to 1000 | < 500
7 | C=CC(=O)Nc1ccc(C(=O)N2CCC(C(=O)Nc3ncc(SCc4ncc(C(C)(C)C)o4)s3)CC2)cc1 [Compound 122, 1-(4-Acrylamidobenzoyl)-N-(5-(((5-(tert-butyl)oxazol-2-yl)methyl)thio)thiazol-2-yl)piperidine-4-carboxamide] | < 500 |  | 
8 | CC(C)c1cnn2c(NC3CCN(C(=O)c4ccc(NC(=O)/C=C/CN(C)C)cc4)CC3)nc(OC3CCN(C)CC3)nc12 [Compound 102, (E)-4-(Dimethylamino)-N-(4-(4-((8-isopropyl-2-((1-methylpiperidin-4-yl)oxy)pyrazolo[1,5-a][1,3,5]triazin-4-yl)amino)piperidine-1-carbonyl)phenyl)but-2-enamide] | 500 to 5000 | > 1000 | 
9 | CC(C)c1cnn2c(NCc3ccccc3NC(=O)c3ccc(NC(=O)/C=C/CN(C)C)cc3)nc(OC3CCN(C)CC3)nc12 [Compound 103, (E)-4-(4-(dimethylamino)but-2-enamido)-N-(2-(((8-isopropyl-2-((1-methylpiperidin-4-yl)oxy)pyrazolo[1,5-a][1,3,5]triazin-4-yl)amino)methyl)phenyl)benzamide] | 500 to 5000 | 100 to 1000 | 
10 | CC(C)c1cnn2c(NCc3ccccc3N3CCN(C(=O)/C=C/CN(C)C)CC3)nc(OC3CCN(C)CC3)nc12 [Compound 105, (E)-4-(Dimethylamino)-1-(4-(2-(((8-isopropyl-2-((1-methylpiperidin-4-yl)oxy)pyrazolo[1,5-a][1,3,5]triazin-4-yl)amino)methyl)phenyl)piperazin-1-yl)but-2-en-1-one] | < 500 | < 100 | 
11 | C=CC(=O)Nc1cccc(C(C)N2CCC(C(=O)Nc3ncc(SCc4ncc(C(C)(C)C)o4)s3)CC2)c1 (centres unmarked) [Compound 121, 1-(1-(3-Acrylamidophenyl)ethyl)-N-(5-(((5-(tert-butyl)oxazol-2-yl)methyl)thio)thiazol-2-yl)piperidine-4-carboxamide] |  | 100 to 1000 | < 500
12 | CC(C)c1cnn2c(NCc3ccccc3NCc3ccc(NC(=O)/C=C/CN(C)C)cc3)nc(OC3CCN(C)CC3)nc12 [Compound 104, (E)-4-(dimethylamino)-N-(4-(((2-(((8-isopropyl-2-((1-methylpiperidin-4-yl)oxy)pyrazolo[1,5-a][1,3,5]triazin-4-yl)amino)methyl)phenyl)amino)methyl)phenyl)but-2-enamide] | < 500 | < 100 | 
13 | C=CC(=O)N1CCCC(CN2CCC(C(=O)Nc3ncc(SCc4ncc(C(C)(C)C)o4)s3)CC2)C1 (centres unmarked) [Compound 125, 1-((1-Acryloylpiperidin-3-yl)methyl)-N-(5-(((5-(tert-butyl)oxazol-2-yl)methyl)thio)thiazol-2-yl)piperidine-4-carboxamide] |  | 100 to 1000 | < 500
